Assay results published in patent publication US11180504B2 (ORCHID PHARMA LTD., priority 2016, dated 2021).
Values after ≈ are worked out from the molar mass of the structure shown.

Experiments:
[1] = test system: methicillin-sensitive Staphylococcus aureus; test: MIC by broth micro-dilution (CLSI), methicillin-sensitive S. aureus; type: cell-based; settings: Staphylococcus aureus, ATCC 29213 / MSSA, MSSA S. aureus ATCC29213; read-out: MIC
[2] = test system: carbapenemase producing K. pneumoniae; test: MIC by broth micro-dilution (CLSI), carbapenemase producing K. pneumoniae; type: cell-based, Klebsiella pneumoniae; settings: Klebsiella pneumoniae, ATCCBAA1705, KPC-2 K. pneumoniae ATCC BAA-1705; read-out: MIC
[3] = test system: carbapenem sensitive Escherichia coli; test: MIC by broth micro-dilution (CLSI), carbapenem sensitive E. coli; type: cell-based; settings: Escherichia coli, ATCC25922, ESBL −ve E. coli ATCC25922; read-out: MIC
[4] = test system: carbapenem sensitive Pseudomonas aeruginosa; test: MIC by broth micro-dilution (CLSI), carbapenem sensitive P. aeruginosa; type: cell-based; settings: Pseudomonas aeruginosa, ATCC27853, Meropenem susceptible P. aeruginosa ATCC27853; read-out: MIC

MIC [1] [µg/mL] | MIC [2] [µg/mL] | MIC [3] [µg/mL] | MIC [4] [µg/mL] | SMILES
1 (≈ 1.71 µM) | 0.5 (≈ 0.854 µM) | 0.06 (≈ 0.102 µM) | 1 (≈ 1.71 µM) | C[C@@H](NC(=O)Cn1cnnn1)[C@H]1C(=O)N2C(C(=O)O)=C(S[C@@H]3CN[C@H](C(=O)N4C[C@@]56CNCC5C[C@@H]4C6)C3)[C@H](C)[C@H]12 (stereo partly drawn) [Example 571, (4R,5S,6R)-6-((R)-1-(2-(1H-tetrazol-1-yl)acetamido)ethyl)-3-((3S,5S)-5-((1R,7R)-3,8-Diaza-tricyclo[5.2.1.01,5]decane-8-carbonyl)-pyrrolidin-3-ylthio)-4-methyl-7-oxo-1-azabicyclo[3.2.0]hept-2-ene-2-carboxylic acid]
8 (≈ 13.6 µM) | 4 (≈ 6.79 µM) | 0.5 (≈ 0.849 µM) | 2 (≈ 3.4 µM) | C[C@@H](NC(=O)Cn1cnnn1)[C@H]1C(=O)N2C(C(=O)O)=C(S[C@@H]3CN[C@H](C(=O)N4C[C@H]5C[C@H](N)C[C@@]5(N)C4)C3)[C@H](C)[C@H]12 [Example 574, (4R,5S,6R)-6-((R)-1-(2-(1H-tetrazol-1-yl)acetamido)ethyl)-3-((3S,5S)-5-((3aS,5S,6aR)-3a,5-diaminooctahydrocyclo-penta[c]pyrrole-2-carbonyl)pyrrolidin-3-ylthio)-4-methyl-7-oxo-1-azabicyclo[3.2.0]hept-2-ene-2-carboxylic acid]
1 (≈ 1.65 µM) | 0.5 (≈ 0.826 µM) | 0.125 (≈ 0.206 µM) | 0.25 (≈ 0.413 µM) | C[C@@H](NC(=O)Cn1cnnn1)[C@H]1C(=O)N2C(C(=O)O)=C(S[C@@H]3CN[C@H](C(=O)N4C[C@@H](NC(=N)N)C[C@H]4CO)C3)[C@H](C)[C@H]12 [Example 576, (4R,5S,6R)-6-((R)-1-(2-(1H-tetrazol-1-yl)acetamido)ethyl)-3-((3S,5S)-5-((2S,4S)-4-guanidino-2-(hydroxymethyl)-pyrrolidine-1-carbonyl)pyrrolidin-3-ylthio)-4-methyl-7-oxo-1-azabicyclo[3.2.0]hept-2-ene-2-carboxylic acid]
4 (≈ 6.64 µM) | 2 (≈ 3.32 µM) | 0.25 (≈ 0.415 µM) | 4 (≈ 6.64 µM) | C[C@@H](NC(=O)Cn1cnnn1)[C@H]1C(=O)N2C(C(=O)O)=C(S[C@@H]3CN[C@H](C(=O)N4CC5CCN(CCN)C5C4)C3)[C@H](C)[C@H]12 (stereo partly drawn) [Example 577, (4R,5S,6R)-6-((R)-1-(2-(1H-tetrazol-1-yl)acetamido)ethyl)-3-((3S,5S)-5-(1-(2-aminoethyl)octahydropyrrolo[3,4-b]pyrrole-5-carbonyl)pyrrolidin-3-ylthio)-4-methyl-7-oxo-1-azabicyclo[3.2.0]hept-2-ene-2-carboxylic acid]
4 (≈ 9.14 µM) | 1 (≈ 2.29 µM) | 0.25 (≈ 0.571 µM) | 16 (≈ 36.6 µM) | C[C@@H](NC(=O)Cn1cnnn1)[C@H]1C(=O)N2C(C(=O)O)=C(SCCNC(=N)N)[C@H](C)[C@H]12 [Example 579, (4R,5S,6R)-6-((R)-1-(2-(1H-tetrazol-1-yl)acetamido)ethyl)-3-(2-guanidinoethylthio)-4-methyl-7-oxo-1-azabicyclo[3.2.0]hept-2-ene-carboxylic acid]
2 (≈ 3.49 µM) | 1 (≈ 1.74 µM) | 0.25 (≈ 0.436 µM) | 0.5 (≈ 0.872 µM) | C[C@@H](NC(=O)Cn1cnnn1)[C@H]1C(=O)N2C(C(=O)O)=C(S[C@@H]3CN[C@H](C(=O)N4C[C@@H]5NC(=N)N[C@@H]5C4)C3)[C@H](C)[C@H]12 [Example 580, (4R,5S,6R)-6-((R)-1-(2-(1H-tetrazol-1-yl)acetamido)ethyl)-3-((3S,5S)-5-((3aR,6aS)-2-iminooctahydropyrrolo[3,4-d]imidazole-5-carbonyl)pyrrolidin-3-ylthio)-methyl-7-oxo-1-azabicyclo[3.2.0]hept-2-ene-2-carboxylic acid]
8 (≈ 13 µM) | 8 (≈ 13 µM) | 0.5 (≈ 0.812 µM) | 64 (≈ 104 µM) | C[C@@H](NC(=O)Cn1cnnn1)[C@H]1C(=O)N2C(C(=O)O)=C(S[C@@H]3CN[C@H](C(=O)N4CC5CC(NC(=N)N)CC5C4)C3)[C@H](C)[C@H]12 (stereo partly drawn) [Example 581, (4R,5S,6R)-6-((R)-1-(2-(1H-tetrazol-yl)acetamido)ethyl)-3-((3S,5S)-5-(5-guanidinooctahydroyclopenta[c]pyrrole-2-carbonyl)pyrrolidin-3-ylthio)-4-methyl-7-oxo-1-azabicyclo[3.2.0]hept-2-ene-2-carboxylic acid]
2 (≈ 3.47 µM) | 2 (≈ 3.47 µM) | 0.25 (≈ 0.434 µM) | 0.5 (≈ 0.869 µM) | C[C@@H](NC(=O)Cn1cnnn1)[C@H]1C(=O)N2C(C(=O)O)=C(S[C@@H]3CN[C@H](C(=O)N4CC[C@H](NC(=N)N)C4)C3)[C@H](C)[C@H]12 [Example 582, (4R,5S,6R)-6-((R)-1-(2-(1H-tetrazol-1-yl)acetamido)-ethyl)-3-((3S,5S)-5-((S)-3-guanidino-pyrrolidine-1-carbonyl)pyrrolidin-3-ylthio)-4-methyl-7-oxo-1-azabicyclo[3.2.0]hept-ene-2-carboxylic acid]
1 (≈ 1.65 µM) | 1 (≈ 1.65 µM) | 0.03 (≈ 0.0495 µM) | 0.5 (≈ 0.826 µM) | C[C@@H](NC(=O)Cn1cnnn1)[C@H]1C(=O)N2C(C(=O)O)=C(S[C@@H]3CN[C@H](C(=O)N4C[C@@H](CO)[C@H](NC(=N)N)C4)C3)[C@H](C)[C@H]12 [Example 583, (4R,5S,6R)-6-((R)-1-(2-(1H-tetrazol-1-yl)acetamido)ethyl)-3-((3S,5S)-5-((3S,4R)-3-guanidino-4-(hydroxymethyl)pyrrolidine-1-carbonyl)pyrrolidin-3-ylthio)-4-methyl-7-oxo-1-azabicyclo[3.2.0]hept-2-ene-2-carboxylic acid]
2 (≈ 3.55 µM) | 1 (≈ 1.77 µM) | 0.25 (≈ 0.444 µM) | 1 (≈ 1.77 µM) | C[C@@H](NC(=O)Cn1cnnn1)[C@H]1C(=O)N2C(C(=O)O)=C(S[C@@H]3CN[C@H](C(=O)N4C[C@@H](CO)[C@H](N)C4)C3)[C@H](C)[C@H]12 [Example 584, (4R,5S,6R)-6-((R)-1-(2-(1H-tetrazol-1-yl)acetamido)ethyl)-3-((3S,5S)-5-((3S,4R)-3-amino-4-(hydroxymethyl)pyrrolidine-1-carbonyl)pyrrolidin-3-ylthio)-4-methyl-7-oxo-1-azabicyclo[3.2.0]hept-2-ene-2-carboxylic acid]
2 (≈ 3.1 µM) | 1 (≈ 1.55 µM) | 0.125 (≈ 0.194 µM) | 4 (≈ 6.19 µM) | C[C@@H](NC(=O)Cn1cnnn1)[C@H]1C(=O)N2C(C(=O)O)=C(S[C@@H]3CN[C@H](C(=O)N4CC5C[C@@H](NC(=N)N)C[C@]5(CO)C4)C3)[C@H](C)[C@H]12 (stereo partly drawn) [Example 585, (4R,5S,6R)-6-((R)-1-(2-(1H-tetrazol-1-yl)acetamido)ethyl)-3-((3S,5S)-5-((3aR,5R)-5-guanidino-3a-(hydroxymethyl)octahydrocyclopenta[c]pyrrole-2-carbonyl)pyrrolidin-3-ylthio)-4-methyl-7-oxo-1-azabicyclo[3.2.0]hept-2-ene-2-carboxylic acid]
32 (≈ 57.9 µM) | 4 (≈ 7.24 µM) | 4 (≈ 7.24 µM) | 4 (≈ 7.24 µM) | CNCC(=O)N[C@H](C)[C@H]1C(=O)N2C(C(=O)O)=C(S[C@@H]3CN[C@H](C(=O)N4C[C@@H](O)[C@H](NC(=N)N)C4)C3)[C@H](C)[C@H]12 [Example 588, (4R,5S,6R)-3-((3S,5S)-5-((3R,4R)-3-guanidino-4-hydroxypyrrolidine-1-carbonyl)pyrrolidin-3-ylthio)-4-methyl-6-((R)-1-(2-(methylamino)acetamido)ethyl)-7-oxo-1-azabicyclo[3.2.0]hept-2-ene-2-carboxylic acid]
